Values of other authors as cited in article PMC5532403, “Potential for a novel manganese porphyrin compound as adjuvant canine lymphoma therapy” (Cancer Chemotherapy and Pharmacology, 2017).

Assays:
[1] = parameters: method as in PMID 26496207; conditions: cited from earlier work
[2] = test system: primary human lymphoma samples; parameters: method as in PMID 19549914, PMID 25725417; conditions: ex vivo; cited from earlier work
[3] = test system: murine lymphoma cell lines; parameters: method as in PMID 19549914, PMID 25725417; conditions: in vitro; cited from earlier work

**Q.** What does the source list for CC[n+]1ccccc1-c1c2nc(c(-c3cccc[n+]3CC)c3ccc([n-]3)c(-c3cccc[n+]3CC)c3nc(c(-c4cccc[n+]4CC)c4ccc1[n-]4)C=C3)C=C2.[Mn+3] [MnTE-2-PyP5+]?
**A.** tissue accumulation, tumor compared to normal tissue [1]: accumulates preferentially in tumor tissue compared to normal tissue; effect on chemotherapeutic response [2]: enhanced the chemotherapeutic response; effect on chemotherapeutic response [3]: enhanced the chemotherapeutic response
